This test concerns the target NQO1 (Homo sapiens, UniProt P15559). Put plainly: In vitro NQO1 enzyme activity assay (cytochrome C reduction, absorbance at 550 nm). As to conditions: NQO1 2 ng. Type of test: biochemical. How it is done: In order to evaluate the activity of synthesized compound in NQO1, the experiments were conducted as follows:
The synthesized compound was dissolved in DMSO to make a 10 mM stock solution, which was further diluted with DMSO to 250 μM so as to prepare a working solution. For experimental groups, the working solution of the compound was added to an enzyme reaction solution in which 50 μL of 1.54 mM Cytochrome C solution was added to 900 μL of 50 mM Tris-HCl (pH7.5) containing 0.14% BSA. For negative control groups, DMSO not containing the compound of the invention was added to the enzyme reaction solution as above. For each experimental and control group, 20 μL of 100 ng/mL NQO1 protein was added. Next, 10 μL of 20 mM NADH was added to bring up the volume to 1 mL. The change of absorbance was measured at 550 nm for 10 minutes using 1 mL cuvette. The kinetics of reaction was measured with the increase of absorbance as the cytochrome C was reduced at 550 nm over 10 minutes. The activity of NQO1 was measured by the amount of cytochrome C that is being reduced (nmol cytochrome C that was reduced/min/ug NQO1 protein).
Absorption coefficient of Cytochrome C: 21.1 (μmol/mL)^−1 cm^−1
Equipment=Cary 100 UV-Vis Spectrophotometer

Where [1] appears, read: Table 1, Compound 5 μM, control 196.
Where [2] appears, read: Table 2, Compound 0.2 μM, control 96.
The mark [3] stands for this setting: Table 3, Compound 0.2 μM, control 74.
Where [4] appears, read: Table 4, Compound 0.2 μM, control 10.

Each structure is given as a SMILES string.

Sequence of NQO1 (P15559 whole entry, species assumed): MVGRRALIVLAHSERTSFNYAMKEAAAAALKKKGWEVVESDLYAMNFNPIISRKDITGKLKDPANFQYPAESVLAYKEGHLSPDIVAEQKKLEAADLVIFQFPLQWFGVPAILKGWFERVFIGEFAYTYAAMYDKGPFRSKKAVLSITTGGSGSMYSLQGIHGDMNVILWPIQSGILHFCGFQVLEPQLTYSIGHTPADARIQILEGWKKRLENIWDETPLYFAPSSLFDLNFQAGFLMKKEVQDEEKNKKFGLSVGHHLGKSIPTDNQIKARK

On to `O=C1C(=O)c2c(n(-c3ccccc3)[nH]c2=O)-c2ccccc21` [Compound 1, 1-phenyl-1H-benzo[g]indazol-3,4,5(2H)-trione], for which the “NQO1 activity (nmol of reduced Cytochrome C/min/μg NQO1 protein)” value under setting [1] is given as 180 nmol of reduced Cytochrome C/min/μg NQO1 protein.

Consider `CC(C)Oc1nn(-c2ccccc2)c2c1C(=O)C(=O)c1ccccc1-2` [Compound 2, 3-isopropoxy-1-phenyl-1H-benzo[g]indazol-4,5-dione], for which the “NQO1 activity (nmol of reduced Cytochrome C/min/μg NQO1 protein)” value under setting [2] is reported as 3531 nmol of reduced Cytochrome C/min/μg NQO1 protein.

On to `CC(C)n1c(=O)c2c(n1C)-c1ccccc1C(=O)C2=O` [Compound 3, 2-isopropyl-1-methyl-1H-benzo[g]indazol-3,4,5(2H)-trione], for which, under setting [1], the “NQO1 activity (nmol of reduced Cytochrome C/min/μg NQO1 protein)” value was 3066 nmol of reduced Cytochrome C/min/μg NQO1 protein.

In the case of `Cn1c(=O)c2c(n1-c1ccccc1)-c1ccccc1C(=O)C2=O` [Compound 5, 2-methyl-1-phenyl-1H-benzo[g]indazol-3,4,5(2H)-trione], the “NQO1 activity (nmol of reduced Cytochrome C/min/μg NQO1 protein)” value under setting [1] is listed as 2602 nmol of reduced Cytochrome C/min/μg NQO1 protein.

Regarding `COc1nn(-c2ccccc2)c2c1C(=O)C(=O)c1ccccc1-2` [Compound 6, 3-methoxy-1-phenyl-1H-benzo[g]indazol-4,5-dione], the “NQO1 activity (nmol of reduced Cytochrome C/min/μg NQO1 protein)” value is recorded as 7706 nmol of reduced Cytochrome C/min/μg NQO1 protein under setting [1], 3782 nmol of reduced Cytochrome C/min/μg NQO1 protein under setting [2], 2905 nmol of reduced Cytochrome C/min/μg NQO1 protein under setting [3] and 3261 nmol of reduced Cytochrome C/min/μg NQO1 protein under setting [4].

Consider `CCn1c(=O)c2c(n1-c1ccccc1)-c1ccccc1C(=O)C2=O` [Compound 7, 2-ethyl-1-phenyl-1H-benzo[g]indazol-3,4,5(2H)-trione], for which, under setting [2], the “NQO1 activity (nmol of reduced Cytochrome C/min/μg NQO1 protein)” value is given as 2246 nmol of reduced Cytochrome C/min/μg NQO1 protein.

On to `CCOc1nn(-c2ccccc2)c2c1C(=O)C(=O)c1ccccc1-2` [Compound 8, 3-ethoxy-1-phenyl-1H-benzo[g]indazol-4,5-dione], for which the “NQO1 activity (nmol of reduced Cytochrome C/min/μg NQO1 protein)” value under setting [2] is recorded as 3768 nmol of reduced Cytochrome C/min/μg NQO1 protein.

`CC(C)Cn1c(=O)c2c(n1-c1ccccc1)-c1ccccc1C(=O)C2=O` [Compound 9, 2-isobutyl-1-phenyl-1H-benzo[g]indazol-3,4,5(2H)-trione]: the “NQO1 activity (nmol of reduced Cytochrome C/min/μg NQO1 protein)” value under setting [2] is reported as 2474 nmol of reduced Cytochrome C/min/μg NQO1 protein.

As to `CC(C)COc1nn(-c2ccccc2)c2c1C(=O)C(=O)c1ccccc1-2` [Compound 10, 3-isobutoxy-1-phenyl-1H-benzo[g]indazol-4,5-dione], the “NQO1 activity (nmol of reduced Cytochrome C/min/μg NQO1 protein)” value under setting [2] is 3455 nmol of reduced Cytochrome C/min/μg NQO1 protein.

Regarding `CC(C)CCn1c(=O)c2c(n1-c1ccccc1)-c1ccccc1C(=O)C2=O` [Compound 11, 2-isopentyl-1-phenyl-1H-benzo[g]indazol-3,4,5(2H)-trione], under setting [2], the “NQO1 activity (nmol of reduced Cytochrome C/min/μg NQO1 protein)” value is 2839 nmol of reduced Cytochrome C/min/μg NQO1 protein.

Regarding `CC(C)CCOc1nn(-c2ccccc2)c2c1C(=O)C(=O)c1ccccc1-2` [Compound 12, 3-(isopentyloxy)-1-phenyl-1H-benzo[g]indazol-4,5-dione], the “NQO1 activity (nmol of reduced Cytochrome C/min/μg NQO1 protein)” value under setting [2] is 2981 nmol of reduced Cytochrome C/min/μg NQO1 protein.

With `CC(C)n1c(=O)c2c(n1-c1ccccc1)-c1ccccc1C(=O)C2=O` [Compound 13, 2-isopropyl-1-phenyl-1H-benzo[g]indazol-3,4,5(2H)-trione], the “NQO1 activity (nmol of reduced Cytochrome C/min/μg NQO1 protein)” value under setting [2] is 2137 nmol of reduced Cytochrome C/min/μg NQO1 protein.

As to `CC(C)n1c2c(c(=O)n1C)C(=O)C(=O)c1ccccc1-2` [Compound 16, 1-isopropyl-2-methyl-1H-benzo[g]indazol-3,4,5(2H)-trione], the “NQO1 activity (nmol of reduced Cytochrome C/min/μg NQO1 protein)” value under setting [2] was 4441 nmol of reduced Cytochrome C/min/μg NQO1 protein.

For the compound `COc1nn(C(C)C)c2c1C(=O)C(=O)c1ccccc1-2` [Compound 17, 1-isopropyl-3-methoxy-1H-benzo[g]indazol-4,5-dione], the “NQO1 activity (nmol of reduced Cytochrome C/min/μg NQO1 protein)” value under setting [3] is reported as 4488 nmol of reduced Cytochrome C/min/μg NQO1 protein.

Turning to `COc1nn(-c2ccc(C(F)(F)F)cc2)c2c1C(=O)C(=O)c1ccccc1-2` [Compound 18, 3-methoxy-1-(4-(trifluoromethyl)phenyl)-1H-benzo[g]indazol-4,5-dione], under setting [2], the “NQO1 activity (nmol of reduced Cytochrome C/min/μg NQO1 protein)” value was 4232 nmol of reduced Cytochrome C/min/μg NQO1 protein.

On to `COc1nn(-c2ccc(F)cc2)c2c1C(=O)C(=O)c1ccccc1-2` [Compound 19, 1-(4-fluorophenyl)-3-methoxy-1H-benzo[g]indazol-4,5-dione], for which, under setting [2], the “NQO1 activity (nmol of reduced Cytochrome C/min/μg NQO1 protein)” value is on record as 4303 nmol of reduced Cytochrome C/min/μg NQO1 protein.

With `Cn1c2c(c(=O)n1-c1ccccc1)C(=O)C(=O)c1ccccc1-2` [Compound 20, 1-methyl-2-phenyl-1H-benzo[g]indazol-3,4,5(2H)-trione], the “NQO1 activity (nmol of reduced Cytochrome C/min/μg NQO1 protein)” value under setting [3] is 436 nmol of reduced Cytochrome C/min/μg NQO1 protein.

With `Cn1c(=O)c2c(n1-c1ccccc1)-c1ccc(F)cc1C(=O)C2=O` [Compound 21, 7-fluoro-2-methyl-1-phenyl-1H-benzo[g]indazol-3,4,5(2H)-trione], the “NQO1 activity (nmol of reduced Cytochrome C/min/μg NQO1 protein)” value under setting [3] was 1095 nmol of reduced Cytochrome C/min/μg NQO1 protein.

With `COc1nn(-c2ccccc2)c2c1C(=O)C(=O)c1cc(F)ccc1-2` [Compound 22, 7-fluoro-3-methoxy-1-phenyl-1H-benzo[g]indazol-4,5-dione], the “NQO1 activity (nmol of reduced Cytochrome C/min/μg NQO1 protein)” value under setting [3] is listed as 5360 nmol of reduced Cytochrome C/min/μg NQO1 protein.

As for `COc1nn(-c2ccccc2)c2c1C(=O)C(=O)c1cc([N+](=O)[O-])ccc1-2` [Compound 23, 3-methoxy-7-nitro-1-phenyl-1H-benzo[g]indazol-4,5-dione], the “NQO1 activity (nmol of reduced Cytochrome C/min/μg NQO1 protein)” value under setting [4] was 393 nmol of reduced Cytochrome C/min/μg NQO1 protein.

For the compound `COc1nn(-c2ccccc2)c2c1C(=O)C(=O)c1cc(N)ccc1-2` [Compound 24, 7-amino-3-methoxy-1-phenyl-1H-benzo[g]indazol-4,5-dione], the “NQO1 activity (nmol of reduced Cytochrome C/min/μg NQO1 protein)” value under setting [4] is given as 3739 nmol of reduced Cytochrome C/min/μg NQO1 protein.

Take `COc1nn(-c2ccccc2)c2c1C(=O)C(=O)c1cc(Br)ccc1-2` [Compound 25, 7-bromo-3-methoxy-1-phenyl-1H-benzo[g]indazol-4,5-dione]: the “NQO1 activity (nmol of reduced Cytochrome C/min/μg NQO1 protein)” value under setting [4] is given as 1445 nmol of reduced Cytochrome C/min/μg NQO1 protein.

For the origin of these results see patent US12187683B2, “Benzoindazolone compound and intermediate thereof” (LMITO THERAPEUTICS INC., priority 2019, dated 2025).
